Assay results as given in patent US8889870B2, “Kinase inhibitors” (Allergan, Inc., priority 2012, dated 2014).

The molecules below were run against PDGFRβ kinase, purified cytoplasmic domain PDGFR-b protein (Homo sapiens (Human), UniProt P09619) (assay: PDGFRβ Kinase Assay). Details: 36 μM ATP, poly-Glu-Tyr (4:1) substrate, 60 minute incubation at 30° C., ELISA read at 492 nm.
Format: biochemical
Method: Biochemical PDGFRβ kinase assays were performed in 96 well microtiter plates that were coated overnight with 75 μg of poly-Glu-Tyr (4:1) in 10 mM Phosphate Buffered Saline (PBS), pH 7.4. The coated plates were washed with 2 mLs per well PBS+0.05% Tween-20 (PBS-T), blocked by incubation with PBS containing 1% BSA, then washed with 2 mLs per well PBS-T prior to starting the reaction. Reactions were carried out in 100 μL reaction volumes containing 36 μM ATP in kinase buffer (50 mM Hepes buffer pH 7.4, 20 mM MgCl2, 0.1 mM MnCl2 and 0.2 mM Na3VO4). Test compounds were reconstituted in 100% DMSO and added to the reaction to give a final DMSO concentration of 5%. Reactions were initiated by the addition 20 ul per well of kinase buffer containing 200-300 ng purified cytoplasmic domain PDGFR-b protein (Millipore). Following a 60 minute incubation at 30° C., the reactions were washed 2 mLs per well PBS-T. 100 μl of a monoclonal anti-phosphotyrosine antibody-peroxidase conjugate diluted 1:10,000 in PBS-T was added to the wells for 30 minutes. Following a 2 mLs per well wash with PBS-Tween-20, 100 μl of O-Phenylenediamine Dihydrochloride in phosphate-citrate buffer, containing urea hydrogen peroxide, was added to the wells for 7-10 minutes as a colorimetric substrate for the peroxidase. The reaction was terminated by the addition of 100 μl of 2.5N H2SO4 to each well and read using a microplate ELISA reader set at 492 nm. IC50 values for compound inhibition were calculated directly from graphs of optical density (arbitrary units) versus compound concentration following subtraction of blank values. […]

PDGFRβ kinase, purified cytoplasmic domain PDGFR-b protein, sequence (P09619 554-1106): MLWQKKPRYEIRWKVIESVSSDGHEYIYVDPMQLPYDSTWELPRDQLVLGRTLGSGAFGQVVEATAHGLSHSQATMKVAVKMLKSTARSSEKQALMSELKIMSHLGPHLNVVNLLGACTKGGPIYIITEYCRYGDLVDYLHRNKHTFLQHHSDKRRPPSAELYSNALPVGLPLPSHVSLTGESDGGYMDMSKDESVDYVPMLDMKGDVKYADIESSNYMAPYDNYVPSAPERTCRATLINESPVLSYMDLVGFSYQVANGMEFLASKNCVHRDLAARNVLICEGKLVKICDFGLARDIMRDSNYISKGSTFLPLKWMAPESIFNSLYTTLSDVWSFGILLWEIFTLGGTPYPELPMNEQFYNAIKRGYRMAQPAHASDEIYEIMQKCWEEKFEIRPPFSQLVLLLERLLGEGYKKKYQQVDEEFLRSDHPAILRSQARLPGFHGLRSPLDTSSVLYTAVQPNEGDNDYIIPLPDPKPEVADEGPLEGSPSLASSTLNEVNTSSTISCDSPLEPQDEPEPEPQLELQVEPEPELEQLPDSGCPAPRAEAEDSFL

Row | IC50 | Molecule
1 | 1050 nM | Cc1cccc(NC(=O)Nc2ccc(N3CCc4ccncc4C3)cc2C)c1 [Example 167, 1-[4-(3,4-dihydro-2,7-naphthyridin-2(1H)-yl)-2-methylphenyl]-3-(3-methylphenyl)urea]
2 | > 10000 nM | Cc1cccc(NC(=O)c2cccc(N3CCc4nc(N)ncc4C3)n2)c1 [Example 37, 6-(2-amino-7,8-dihydropyrido[4,3-d]pyrimidin-6(5H)-yl)-N-(3-methylphenyl)pyridine-2-carboxamide]
3 | 40 nM | CC(C)c1cccc(NC(=O)c2cccc(N3CCc4ccncc4C3)c2)c1 [Example 168, 3-(3,4-dihydro-2,7-naphthyridin-2(1H)-yl)-N-(3-isopropylphenyl)benzamide]
4 | > 10000 nM | CCCCNC(=O)c1cccc(N2CCc3nc(N)ncc3C2)c1 [Example 16, 3-(2-amino-7,8-dihydropyrido[4,3-d]pyrimidin-6(5H)-yl)-N-butylbenzamide]
5 | 30 nM | Cc1ccc(C(=O)Nc2cccc(C(C)C)c2)cc1N1CCc2nc(N)ncc2C1 [Example 149, 3-(2-amino-7,8-dihydropyrido[4,3-d]pyrimidin-6(5H)-yl)-N-(3-isopropylphenyl)-4-methylbenzamide]
6 | 47 nM | Nc1ncc2c(n1)CCN(c1cccc(C(=O)Nc3cccc(C(F)(F)F)c3)c1)C2 [Example 5, 3-(2-amino-7,8-dihydropyrido[4,3-d]pyrimidin-6(5H)-yl)-N-[3-(trifluoromethyl)phenyl]benzamide]
7 | > 10000 nM | Nc1ncc2c(n1)CCN(c1cccc(C(=O)NC3CCCC3)c1)C2 [Example 19, 3-(2-amino-7,8-dihydropyrido[4,3-d]pyrimidin-6(5H)-yl)-N-cyclopentylbenzamide]
8 | 109 nM | CC(C)(C)c1ccc(NC(=O)c2cccc(N3CCc4nc(N)ncc4C3)c2)cc1 [Example 4, 3-(2-amino-7,8-dihydropyrido[4,3-d]pyrimidin-6(5H)-yl)-N-(4-tert-butylphenyl)benzamide]
9 | 59 nM | Cc1cc(C(=O)Nc2cccc(C(C)C)c2)cc(N2CCc3nc(N)ncc3C2)c1 [Example 150, 3-(2-amino-7,8-dihydropyrido[4,3-d]pyrimidin-6(5H)-yl)-N-(3-isopropylphenyl)-5-methylbenzamide]
10 | 15 nM | COC(=O)c1cncc2c1CCN(c1cccc(C(=O)Nc3cccc(C(C)C)c3)c1)C2 [Example 169, Methyl 7-(3-{[(3-isopropylphenyl)amino]carbonyl}phenyl)-5,6,7,8-tetrahydro-2,7-naphthyridine-4-carboxylate]
11 | 1560 nM | Cc1cccc(NC(=O)Nc2ccc(N3CCc4ccncc4C3)cc2)c1 [Example 163, 1-[4-(3,4-dihydro-2,7-naphthyridin-2(1H)-yl)phenyl]-3-(3-methylphenyl)urea]
12 | 602 nM | Nc1ncc2c(n1)CCN(c1cccc(C(=O)NCC3CCCCC3)c1)C2 [Example 18, 3-(2-amino-7,8-dihydropyrido[4,3-d]pyrimidin-6(5H)-yl)-N-(cyclohexylmethyl)benzamide]
13 | 246 nM | CC(C)(C)C1CCC(NC(=O)c2cccc(N3CCc4nc(N)ncc4C3)c2)CC1 (centres unmarked) [Example 17, 3-(2-amino-7,8-dihydropyrido[4,3-d]pyrimidin-6(5H)-yl)-N-(4-tert-butylcyclohexyl)benzamide]
14 | > 10000 nM | O=C(Nc1ccccc1)Nc1ccc(N2CCc3ccncc3C2)cc1 [Example 164, 1-[4-(3,4-dihydro-2,7-naphthyridin-2(1H)-yl)phenyl]-3-phenylurea]
15 | 273 nM | Cc1cc(C(=O)Nc2cccc(C(F)(F)F)c2)cc(N2CCc3nc(N)ncc3C2)c1 [Example 148, 3-(2-amino-7,8-dihydropyrido[4,3-d]pyrimidin-6(5H)-yl)-5-methyl-N-[3-(trifluoromethyl)phenyl]benzamide]
16 | 116 nM | Cc1cccc(NC(=O)c2cccc(N3CCc4nc(N)ncc4C3)c2)c1 [Example 3, 3-(2-amino-7,8-dihydropyrido[4,3-d]pyrimidin-6(5H)-yl)-N-(3-methylphenyl)benzamide]
17 | > 10000 nM | O=C(Nc1ccc(N2CCc3ccncc3C2)cc1)c1cccc(C(F)(F)F)c1 [Example 162, N-[4-(3,4-dihydro-2,7-naphthyridin-2(1H)-yl)phenyl]-3-(trifluoromethyl)benzamide]
18 | 90 nM | Cc1ccc(NC(=O)c2cccc(N3CCc4nc(N)ncc4C3)c2)cc1 [Example 6, 3-(2-amino-7,8-dihydropyrido[4,3-d]pyrimidin-6(5H)-yl)-N-(4-methylphenyl)benzamide]
19 | 36 nM | Cc1cccc(NC(=O)Nc2ccc(N3CCc4ccncc4C3)c(C)c2)c1 [Example 166, 1-[4-(3,4-dihydro-2,7-naphthyridin-2(1H)-yl)-3-methylphenyl]-3-(3-methylphenyl)urea]
20 | 54 nM | CC(C)c1cccc(NC(=O)c2cccc(N3CCc4nc(N)ncc4C3)c2)c1 [Example 2, 3-(2-amino-7,8-dihydropyrido[4,3-d]pyrimidin-6(5H)-yl)-N-(3-isopropylphenyl)benzamide]
21 | > 1000 nM | Cc1ccc(NC(=O)Nc2ccc(N3CCc4ccncc4C3)cc2)cc1 [Example 165, 1-[4-(3,4-dihydro-2,7-naphthyridin-2(1H)-yl)phenyl]-3-(4-methylphenyl)urea]
22 | 61 nM | Nc1ncc2c(n1)CCN(c1cccc(C(=O)Nc3ccc(F)c(C(F)(F)F)c3)c1)C2 [Example 176, 3-(2-amino-7,8-dihydropyrido[4,3-d]pyrimidin-6(5H)-yl)-N-[4-fluoro-3-(trifluoromethyl)phenyl]benzamide]

Each molecule was assayed against VEGFR2 (KDR) kinase, purified cytoplasmic domain KDR protein (Homo sapiens (Human), UniProt P35968) (assay: VEGFR2 Kinase Assay). Details: 2.7 μM ATP, poly-Glu-Tyr (4:1) substrate, 15 minute incubation at 30° C., ELISA read at 492 nm.
VEGFR2 (KDR) kinase, purified cytoplasmic domain KDR protein, sequence (P35968 786-1356): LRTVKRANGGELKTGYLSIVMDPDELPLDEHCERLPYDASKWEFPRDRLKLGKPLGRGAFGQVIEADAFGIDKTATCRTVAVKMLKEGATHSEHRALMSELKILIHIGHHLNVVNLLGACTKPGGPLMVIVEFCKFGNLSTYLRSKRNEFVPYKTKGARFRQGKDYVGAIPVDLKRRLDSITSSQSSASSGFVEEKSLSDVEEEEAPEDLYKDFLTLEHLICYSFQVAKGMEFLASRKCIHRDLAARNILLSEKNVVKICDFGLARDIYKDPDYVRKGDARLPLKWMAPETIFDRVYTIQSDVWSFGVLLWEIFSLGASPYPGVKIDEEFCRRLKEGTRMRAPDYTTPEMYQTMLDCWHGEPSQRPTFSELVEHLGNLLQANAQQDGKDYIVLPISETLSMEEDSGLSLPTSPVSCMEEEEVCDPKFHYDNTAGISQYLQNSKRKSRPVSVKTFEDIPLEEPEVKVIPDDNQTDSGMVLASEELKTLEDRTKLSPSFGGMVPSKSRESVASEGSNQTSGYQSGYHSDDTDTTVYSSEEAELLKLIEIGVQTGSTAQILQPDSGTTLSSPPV
Format: biochemical
Method: Biochemical KDR kinase assays were performed in 96 well microliter plates that were coated overnight with 75 μg/well of poly-Glu-Tyr (4:1) in 10 mM Phosphate Buffered Saline (PBS), pH 7.4. The coated plates were washed with 2 mLs per well PBS+0.05% Tween-20 (PBS-T), blocked by incubation with PBS containing 1% BSA, then washed with 2 mLs per well PBS-T prior to starting the reaction. […] Reactions were initiated by the addition 20 ul per well of kinase buffer containing 200-300 ng purified cytoplasmic domain KDR protein (BPS Bioscience, San Diego, Calif.). Following a 15 minute incubation at 30° C., the reactions were washed 2 mLs per well PBS-T. 100 μl of a monoclonal anti-phosphotyrosine antibody-peroxidase conjugate diluted 1:10,000 in PBS-T was added to the wells for 30 minutes. Following a 2 mLs per well wash with PBS-Tween-20, 100 μl of O-Phenylenediamine Dihydrochloride in phosphate-citrate buffer, containing urea hydrogen peroxide, was added to the wells for 7-10 minutes as a colorimetric substrate for the peroxidase. […] IC50 values for compound inhibition were calculated directly from graphs of optical density (arbitrary units) versus compound concentration following subtraction of blank values.

Row | IC50 | Molecule
23 | > 1000 nM | CSc1ncc2c(n1)CCN(c1cc(C)cc(C(=O)Nc3cccc(C(F)(F)F)c3)c1)C2 [Example 140, 3-methyl-5-[2-(methylthio)-7,8-dihydropyrido[4,3-d]pyrimidin-6(5H)-yl]-N-[3-(trifluoromethyl)phenyl]benzamide]
24 | > 1000 nM | CSc1ncc2c(n1)CCN(c1cc(C)cc(C(=O)Nc3cccc(C(C)C)c3)c1)C2 [Example 142, N-(3-isopropylphenyl)-3-methyl-5-[2-(methylthio)-7,8-dihydropyrido[4,3-d]pyrimidin-6(5H)-yl]benzamide]
25 | > 1000 nM | Cc1ccc(NC(=O)Nc2ccc(N3CCc4ccncc4C3)cc2)cc1 [Example 165, 1-[4-(3,4-dihydro-2,7-naphthyridin-2(1H)-yl)phenyl]-3-(4-methylphenyl)urea]

Row | Molecule | IC50
26 | 4-(2-Methylsulfanyl-5,7-dihydro-pyrrolo[3,4-d]pyrimidin-6-yl)-pyridine-2-carboxylic acid (3-trifluoromethyl-phenyl)-amide [Example 126] | > 10000 nM
